Laboratory results published in patent publication EP2361611A2, “Aqueous sustained-release drug delivery system for highly water-soluble electrolytic drugs” (Upm Pharmaceuticals, Inc., priority 2005, dated 2006).

Experiment: Equilibrium binding study in a two-compartment dialysis cell, HPLC
Settings: sodium alginate 0.877 g/L, 25°C
[1] = total drug concentration 4.97 M x 10^4
[2] = total drug concentration 5.47 M x 10^4
[3] = total drug concentration 5.96 M x 10^4
[4] = total drug concentration 6.96 M x 10^4
[5] = total drug concentration 7.95 M x 10^4
[6] = total drug concentration 8.95 M x 10^4
[7] = total drug concentration 9.94 M x 10^4
[8] = total drug concentration 14.91 M x 10^4
[9] = total drug concentration 19.88 M x 10^4
[10] = total drug concentration 24.86 M x 10^4
[11] = total drug concentration 30.40 M x 10^4
[12] = total drug concentration 41.20 M x 10^4
[13] = total drug concentration 50.70 M x 10^4

Protocol: The studies were performed with a two compartment plexiglass dialysis cell (Hollenbeck laboratory) and having a cellulose membrane (molecular weight cutoff of 6000 Daltons) Bel-Art Products (Pequannock, NJ) placed between the two cell compartments. […] The dialysis cell was shaken at 80 RPM in a thermostatic water bath at 25°C until equilibrium was reached (30 h). The solution was removed from the drug compartment and the concentrations of free drug and polymer-bound drug measured by high performance liquid chromatography ("HPLC").

SMILES: CC(C)NCC(O)COc1cccc2ccccc12 (stereo not drawn) [propranolol]
- Amount bound per gram of polymer [1]: 4.59 M x 10^4
- Bound drug concentration [1]: 4.03 M x 10^4
- Free drug concentration [1]: 0.94 M x 10^4
- r/(Df) [1]: 4.88 L/g
- Amount bound per gram of polymer [2]: 4.84 M x 10^4
- Bound drug concentration [2]: 4.25 M x 10^4
- Free drug concentration [2]: 1.22 M x 10^4
- r/(Df) [2]: 3.97 L/g
- Amount bound per gram of polymer [3]: 5.16 M x 10^4
- Bound drug concentration [3]: 4.53 M x 10^4
- Free drug concentration [3]: 1.43 M x 10^4
- r/(Df) [3]: 3.60 L/g
- Amount bound per gram of polymer [4]: 5.86 M x 10^4
- Bound drug concentration [4]: 5.14 M x 10^4
- Free drug concentration [4]: 1.82 M x 10^4
- r/(Df) [4]: 3.21 L/g
- Amount bound per gram of polymer [5]: 6.23 M x 10^4
- Bound drug concentration [5]: 5.46 M x 10^4
- Free drug concentration [5]: 2.49 M x 10^4
- r/(Df) [5]: 2.49 L/g
- Amount bound per gram of polymer [6]: 6.12 M x 10^4
- Bound drug concentration [6]: 5.37 M x 10^4
- Free drug concentration [6]: 3.57 M x 10^4
- r/(Df) [6]: 1.71 L/g
- Amount bound per gram of polymer [7]: 6.66 M x 10^4
- Bound drug concentration [7]: 5.83 M x 10^4
- Free drug concentration [7]: 4.10 M x 10^4
- r/(Df) [7]: 1.62 L/g
- Amount bound per gram of polymer [8]: 8.61 M x 10^4
- Free drug concentration [8]: 7.36 M x 10^4
- r/(Df) [8]: 1.17 L/g
- Amount bound per gram of polymer [9]: 9.81 M x 10^4
- Bound drug concentration [9]: 8.60 M x 10^4
- Free drug concentration [9]: 11.28 M x 10^4
- r/(Df) [9]: 0.87 L/g
- Amount bound per gram of polymer [10]: 10.73 M x 10^4
- Bound drug concentration [10]: 9.41 M x 10^4
- Free drug concentration [10]: 15.45 M x 10^4
- r/(Df) [10]: 0.60 L/g
- Amount bound per gram of polymer [11]: 11.49 M x 10^4
- Bound drug concentration [11]: 10.08 M x 10^4
- Free drug concentration [11]: 20.32 M x 10^4
- r/(Df) [11]: 0.57 L/g
- Amount bound per gram of polymer [12]: 12.37 M x 10^4
- Bound drug concentration [12]: 10.84 M x 10^4
- Free drug concentration [12]: 30.35 M x 10^4
- r/(Df) [12]: 0.41 L/g
- Amount bound per gram of polymer [13]: 12.93 M x 10^4
- Bound drug concentration [13]: 11.34 M x 10^4
- Free drug concentration [13]: 39.36 M x 10^4
- r/(Df) [13]: 0.33 L/g
